Data from ChEMBL document CHEMBL1130514, “Design and synthesis of conformationally constrained arginal thrombin inhibitors” (Bioorg Med Chem Lett, 1997).
Where a SMILES comes first, the peptide text is derived from it. [ ]: non-standard residue; d: D form. The star is where a group is joined. dNMePhg = CN[C@@H](C(=O)O)c1ccccc1; PhAc = O=C(Cc1ccccc1)*

Legend:
Plasminogen = Plasminogen (Homo sapiens, UniProt P00747); assay: In vitro ability to inhibit the activity of Plasmin
Serine protease 1 = target: T1, Serine protease 1 (Bos taurus, UniProt P00760); assay: In vitro ability to inhibit the activity of Trypsin
T1 sequence (P00760 whole entry): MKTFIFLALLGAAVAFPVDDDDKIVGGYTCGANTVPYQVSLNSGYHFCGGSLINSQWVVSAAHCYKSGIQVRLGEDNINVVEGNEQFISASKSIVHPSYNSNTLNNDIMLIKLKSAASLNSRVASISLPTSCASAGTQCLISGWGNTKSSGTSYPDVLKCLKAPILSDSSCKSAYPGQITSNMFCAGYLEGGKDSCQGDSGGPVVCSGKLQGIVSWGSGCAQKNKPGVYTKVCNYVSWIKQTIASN

Prothrombin = Prothrombin (Homo sapiens, UniProt P00734); assay: In vitro ability to inhibit the activity of human alpha Thrombin

Plasminogen, sequence (P00747 97-580 limits assumed): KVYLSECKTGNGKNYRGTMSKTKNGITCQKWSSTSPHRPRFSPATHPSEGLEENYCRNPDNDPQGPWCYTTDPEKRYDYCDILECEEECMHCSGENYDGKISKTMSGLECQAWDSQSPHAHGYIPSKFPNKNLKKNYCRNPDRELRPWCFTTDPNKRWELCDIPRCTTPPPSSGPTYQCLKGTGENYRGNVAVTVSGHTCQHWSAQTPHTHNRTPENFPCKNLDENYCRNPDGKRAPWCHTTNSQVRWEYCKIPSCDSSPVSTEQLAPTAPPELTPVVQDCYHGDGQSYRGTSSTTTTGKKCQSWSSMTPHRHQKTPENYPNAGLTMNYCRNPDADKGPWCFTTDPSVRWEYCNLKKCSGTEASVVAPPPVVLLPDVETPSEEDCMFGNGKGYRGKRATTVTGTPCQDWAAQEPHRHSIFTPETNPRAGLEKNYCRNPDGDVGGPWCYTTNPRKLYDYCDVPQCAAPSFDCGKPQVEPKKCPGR
Plasminogen, sequence (P00747 581-810 limits assumed): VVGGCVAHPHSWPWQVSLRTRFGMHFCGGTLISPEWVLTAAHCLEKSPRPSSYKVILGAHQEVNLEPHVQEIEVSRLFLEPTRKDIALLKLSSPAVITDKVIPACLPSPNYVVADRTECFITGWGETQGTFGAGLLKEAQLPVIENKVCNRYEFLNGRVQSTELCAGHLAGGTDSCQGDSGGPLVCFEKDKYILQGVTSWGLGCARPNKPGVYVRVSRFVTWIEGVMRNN

Structure (SMILES) | IC50 (Plasminogen) | IC50 (Serine protease 1) | IC50 (Prothrombin)
CN[C@H](Cc1ccccc1)C(=O)N1CCC[C@H]1C(=O)N[C@H](C=O)CCCN=C(N)N | 0.5 µM | 0.02 µM | –
CC(=O)N[C@@]1(Cc2ccccc2)CC[C@H]2CC[C@@H](C(=O)N[C@H]3CCCN(C(=N)N)C3O)N2C1=O (stereo partly specified) | – | – | 3.9 µM
CC1CNc2c(cccc2S(=O)(=O)N[C@H]2CCC[C@H]3CC[C@@H](C(=O)N[C@H]4CCCN(C(=N)N)C4O)N3C2=O)C1 (stereo partly specified) | 1.04 µM | 0.1 µM | 0.018 µM
N=C(N)N1CCC[C@H](NC(=O)[C@@H]2CC[C@@H]3CCC(Cc4ccccc4)C(=O)N32)C1O (stereo partly specified) | – | – | 4.6 µM
N=C(N)N1CCC[C@H](NC(=O)[C@@H]2CC[C@@H]3CCC[C@H](NS(=O)(=O)Cc4ccccc4)C(=O)N32)C1O (stereo partly specified) | 10 µM | – | 0.11 µM
CC(=O)N[C@H]1CCC[C@H]2CC[C@@H](C(=O)N[C@H]3CCCN(C(=N)N)C3O)N2C1=O (stereo partly specified) | 74 µM | 24 µM | 4.3 µM
N=C(N)N1CCC[C@H](NC(=O)[C@@H]2CC[C@@H]3CCC[C@H](NS(=O)(=O)c4cccc5ccccc45)C(=O)N32)C1O (stereo partly specified) | 10 µM | – | 0.11 µM
N=C(N)N1CCC[C@H](NC(=O)[C@@H]2CC[C@@H]3CCCC(Cc4ccccc4)C(=O)N32)C1O (stereo partly specified) | – | – | 1.4 µM
CN[C@@H](C(=O)N1CCC[C@H]1C(=O)N[C@H](C=O)CCCNC(=N)N)c1ccccc1 (H-[dNMePhg]-Pro-Arg-aldehyde) | – | – | 0.026 µM
N=C(N)NCCC[C@@H](C=O)NC(=O)[C@@H]1CCCN1C(=O)Cc1ccccc1 (PhAc-Pro-Arg-aldehyde) | 41 µM | 7.2 µM | 1.6 µM
CC1CNc2c(cccc2S(=O)(=O)N[C@@H](CCCNC(=N)N)C(=O)N2CCC(C)C[C@@H]2C(=O)O)C1 (single isomer, unassigned) [ARGATROBAN] | 800 µM | 5 µM | –
